Assay results: patent US20230348421A1, “5-HT2A RECEPTOR INHIBITOR OR INVERSE AGONIST, PREPARATION METHOD THEREFOR, AND APPLICATION THEREOF” (GENEORA PHARMA (SHIJIAZHUANG) CO., LTD., priority 2020, published 2023)

What was measured:
5-HT2A receptor [1] = target: T1, 5-HT2A receptor (Homo sapiens (Human), UniProt P28223); assay: Test for 5-HT2A antagonistic activity (calcium ion antagonism, FLIPR, CHO-K1/5-HT2A cells); type: cell-based; conditions: 100 nM a-methyl-5-HT, Ca2+ signal
Procedure: • Cell lines: CHO-K1/5-HT2A (Chempartner) • Cell culture medium: DMEM/F12+10% FBS (purchased from GBICO) • Cell culture plate: 384-well Assay Plate (purchased from Corning) • Detection kit: FLIPR® Calcium 4 Assay Kit (purchased from Molecular Devices)
After that, centrifugation was performed to remove the culture medium in the cell culture plate. Dye was added, and the cells were incubated in a 37° C., 5% CO2 incubator for another 1 h. The cell culture plate was placed on the FLIPR. A compound to be tested was added, and the Ca^2+ signal was detected, wherein the compound to be tested was subjected to 3-fold gradient dilution with PBS to obtain 10 concentrations, with the highest concentration of 10 uM, and double replicate wells were set up. […] In order to determine the test stability, risperidone was used as a positive control. The data were processed with GraphPad Prism 7.0 to obtain a cell inhibition rate curve, and the IC50 was calculated.
Inhibition rate (%)=100%−[(signal value of the compound to be tested−signal value of the test solution)/(the maximum signal value−the signal value of the test solution)]×100%

hERG potassium channels = hERG potassium channels (Homo sapiens (Human), UniProt Q12809); assay: hERG inhibitory activity, whole-cell patch clamp in CHO-hERG cells; conditions: read-out: hERG inhibitory activity IC50; CHO-hERG cells, whole-cell patch clamp, tail current at -50 mV
hERG potassium channels, sequence (Q12809 whole entry): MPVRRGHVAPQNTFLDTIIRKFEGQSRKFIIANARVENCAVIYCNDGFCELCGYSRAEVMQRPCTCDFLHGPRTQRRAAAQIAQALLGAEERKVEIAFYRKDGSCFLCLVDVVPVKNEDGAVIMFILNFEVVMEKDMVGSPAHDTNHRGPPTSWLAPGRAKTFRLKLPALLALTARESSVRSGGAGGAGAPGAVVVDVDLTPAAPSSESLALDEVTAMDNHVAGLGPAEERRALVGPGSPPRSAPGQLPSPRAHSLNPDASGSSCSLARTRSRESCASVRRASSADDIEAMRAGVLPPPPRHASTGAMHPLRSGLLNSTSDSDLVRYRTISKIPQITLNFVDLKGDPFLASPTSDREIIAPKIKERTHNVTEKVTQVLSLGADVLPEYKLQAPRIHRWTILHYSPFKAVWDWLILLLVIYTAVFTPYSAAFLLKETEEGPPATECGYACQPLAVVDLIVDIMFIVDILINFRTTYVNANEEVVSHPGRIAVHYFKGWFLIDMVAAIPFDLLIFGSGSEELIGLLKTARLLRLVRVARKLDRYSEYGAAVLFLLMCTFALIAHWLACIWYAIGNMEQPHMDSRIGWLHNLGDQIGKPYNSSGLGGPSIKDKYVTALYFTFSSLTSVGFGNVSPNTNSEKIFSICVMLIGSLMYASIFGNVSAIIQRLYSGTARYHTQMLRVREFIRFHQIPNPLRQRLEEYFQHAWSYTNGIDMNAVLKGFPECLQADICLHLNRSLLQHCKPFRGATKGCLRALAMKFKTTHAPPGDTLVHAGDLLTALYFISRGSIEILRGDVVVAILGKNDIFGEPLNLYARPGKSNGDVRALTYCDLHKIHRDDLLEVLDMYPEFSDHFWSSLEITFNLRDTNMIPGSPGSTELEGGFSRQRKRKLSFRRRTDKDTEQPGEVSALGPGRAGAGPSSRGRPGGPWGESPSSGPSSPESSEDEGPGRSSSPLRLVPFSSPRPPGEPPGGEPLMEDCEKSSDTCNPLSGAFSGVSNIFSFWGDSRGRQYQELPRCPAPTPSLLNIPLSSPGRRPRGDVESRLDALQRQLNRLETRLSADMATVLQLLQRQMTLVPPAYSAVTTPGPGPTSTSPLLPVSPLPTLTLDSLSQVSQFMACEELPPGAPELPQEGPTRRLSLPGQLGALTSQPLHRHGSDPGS
Procedure: • Name: Dimethyl sulfoxide (DMSO)
• Species & strains: CHO-hERG cell lines (Chinese hamster ovary cells stably expressing hERG channels) • Culture medium: 90% F12, 10% fetal bovine serum, 100 μg/mL G418 and 100 μg/mL hygromycin B • Culture conditions: 5% CO2, 37° C. incubator • Freezing conditions: Liquid nitrogen
Digestion was performed at room temperature for 3-5 min. The digestion solution was pipetted, and the cells were resuspended in extracellular fluid and transferred to an experimental dish for electrophysiological recording for later use.
On the day of the test, the compound was diluted with DMSO to an intermediate concentration. 10 μL of compound with the intermediate concentration was taken, transferred to 4990 μL of extracellular fluid, and subjected to 500-fold dilution to obtain a final concentration to be tested.
CHO (Chinese Hamster Ovary) cells stably expressing hERG potassium channels were taken, and hERG potassium channel currents were recorded at room temperature by means of a whole-cell patch-clamp technique. A glass microelectrode was formed by pulling a glass electrode blank (BF150-86-10, Sutter) with a glass microelectrode puller. The tip resistance was about 2-5 MΩ after perfusion of a pippette solution. The glass microelectrode could be connected to a patch clamp amplifier by inserting the glass microelectrode into an amplifier probe. Clamping voltages and data recording were controlled and recorded by a computer with pClamp 10 software, with a sampling frequency of 10 kHz and a filtering frequency of 2 kHz. After the whole-cell recording was obtained, the cells were clamped at −80 mV, and the step voltage evoking hERG potassium current (I hERG) was changed from −80 mV to +20 mV by giving a 2 s depolarization voltage and then repolarized to −50 mV for 1 s, and returned to −80 mV. Such voltage stimulation was given every 10 s, and the administration process was started after it was determined that the hERG potassium currents were stable (1 min). The compound at each test concentration was given at least 1 min, and at least 2 cells (n≥2) were tested for each concentration.
Data analysis was performed by means of pClamp 10 and GraphPad Prism 5.0 software.
The formula for calculating the degree of inhibition of different compound concentrations on hERG potassium currents (the hERG tail current peak value evoked at −50 mV) was:
Y=Bottom+(Top−Bottom)/(1+10^((LogIC50−X)*HillSlope))
wherein X is a Log value of a test concentration of a test sample, Y is the inhibition percentage at a corresponding concentration, and Bottom and Top are the minimum inhibition percentage and the maximum inhibition percentage, respectively.

5-HT2A receptor [2] = target: T1, 5-HT2A receptor; assay: Screening for 5-HT2A inverse agonistic activity (NIH3T3-5-HT2A R cells, Bright-Glo luciferase, 120 h); type: cell-based; conditions: NIH3T3-5HT2AR cells, cell inhibition rate
Procedure: • Cell lines: Adherent cells NIH3T3-5-HT2A R • Cell culture medium: DMEM+10% FBS (purchased from GBICO) • Cell culture plate: White-wall clear-bottom 96-well plate (purchased from Perkin Elmer) • Detection kit: Bright-Glo™ Luciferase (purchased from Promega) • Detection instrument: BioTek multifunctional microplate reader
NIH3T3-5HT2AR cells in the logarithmic growth phase were seeded into a white-wall clear-bottom 96-well plate at a density of 1000 cells per well, and cultured overnight in a 37° C., 5% CO2 incubator. […] On the sixth day, a Bright-Glo™ Luciferase reagent with a volume equal to that of cell sap was added to the cells, and the cells were incubated at room temperature in the dark for 20 min. […] The data was processed with GraphPad Prism 7.0 to obtain a cell inhibition rate curve, and the IC50 was calculated.
Cell inhibition rate (%)=[100−(Lum test drug−Lum culture solution)/(Lum cell control−Lum culture solution)×100]%

[3] = In-vivo pharmacokinetic test in rats after intragastric administration; conditions: SD rats; for AUC(0-t) / Cmax / MRT last / Tmax / half-life: rat, po, 46.7 umol/kg, 20% Solutol, plasma
Procedure: Blood was collected before administration and 0.25 h, 0.5 h, 1 h, 2 h, 3 h, 4 h, 6 h, 8 h, 12 h and 24 h after administration, respectively and placed in a heparinized EP tube, and the plasma was centrifugally separated. After the plasma was pre-treated, the concentrations of compounds in the plasma were determined by LC-MS/MS, and the pharmacokinetic parameters were calculated.

[4] = In-vitro stability in human liver microsomes; type: in vitro ADME; conditions: for Remaining amount 60 min later: Human liver microsomes 0.5 mg/mL, 1 μM, NADPH 1 mM
Procedure: (§1) • 1) formulation of test sample working solution: the test sample was diluted to 100 μM with methanol; • 2) formulation of liver microsome working solution: liver microsomes were diluted to 0.56 mg/ml with a 100 mM phosphate buffer; • 3) formulation of reduced nicotinamide adenine dinucleotide phosphate (NADPH) working solution: an appropriate amount of NADPH was weighted and diluted to 20 mM with a phosphate buffer, and then a 60 mM MgCl2 solution with the equal volume was added; • 4) formulation of stop solution: tolbutamide was diluted to 20 ng/mL with acetonitrile to serve as a stop solution containing an internal standard.
(§2) The remaining percentage of the test sample was tested 60 min later.

[5] = In-vitro stability in dog liver microsomes; type: in vitro ADME; conditions: for Remaining amount 60 min later: Dog liver microsomes 0.5 mg/mL, 1 μM, NADPH 1 mM
Procedure: as §1, §2

T1 sequence (P28223 whole entry): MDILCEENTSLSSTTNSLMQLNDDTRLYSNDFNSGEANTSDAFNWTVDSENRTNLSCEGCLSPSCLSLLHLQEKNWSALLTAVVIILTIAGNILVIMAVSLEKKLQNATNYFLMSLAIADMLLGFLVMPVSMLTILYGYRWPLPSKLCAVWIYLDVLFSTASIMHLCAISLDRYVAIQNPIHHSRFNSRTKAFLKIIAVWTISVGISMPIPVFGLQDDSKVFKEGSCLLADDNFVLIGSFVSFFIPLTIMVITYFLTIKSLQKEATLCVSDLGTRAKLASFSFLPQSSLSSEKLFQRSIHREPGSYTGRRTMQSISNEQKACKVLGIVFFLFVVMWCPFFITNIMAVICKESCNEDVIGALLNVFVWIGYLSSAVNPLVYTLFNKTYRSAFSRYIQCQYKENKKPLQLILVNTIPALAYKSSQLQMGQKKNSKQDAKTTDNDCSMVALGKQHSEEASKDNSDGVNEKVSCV

**Q.** With `CN1CCC(N(Cc2ccc(F)cn2)C(=O)NCc2ccc(OCC(F)(F)F)cc2)CC1` [Compound 59] as the molecule, how does the IC50 (5-HT2A receptor [1]) read?
**A.** Its IC50 is 0.54 nM.

**Q.** What about the IC50 (hERG potassium channels) of the same molecule?
**A.** The IC50 was 810 nM.

**Q.** And the IC50 (5-HT2A receptor [2])?
**A.** The IC50 was 2.04 nM.

**Q.** And the “AUClast relative to pimavanserin” value ([3]; 46.7 μmol/kg)?
**A.** Its value is 4 times.

**Q.** And the “Cmax relative to pimavanserin” value ([3]; 46.7 μmol/kg)?
**A.** The value was 2 times.

**Q.** And the “T1/2 compared with pimavanserin” value ([3]; 46.7 μmol/kg)?
**A.** Its value is “higher than that of pimavanserin”.

**Q.** What about the AUC(0-t) [3] of the same molecule?
**A.** The AUC(0-t) was 17 ± 2.97 µM·h.

**Q.** And the Cmax [3]?
**A.** Its Cmax is 1140 ± 365 nM.

**Q.** What about the MRT last [3] of the same molecule?
**A.** The MRT last was 8.66 ± 0.89 h.

**Q.** What about the Tmax [3] of the same molecule?
**A.** Its Tmax is 5.88 ± 5.14 h.

**Q.** And the half-life [3]?
**A.** The half-life was 5.51 ± 1.33 h.

**Q.** And the “Remaining amount 60 min later” value [4]?
**A.** The value was 89.19%.

**Q.** What about the “Stability compared with pimavanserin” value ([4]; human liver microsomes in vitro) of the same molecule?
**A.** The value was “obviously superior stability to that of pimavanserin”.

**Q.** What about the “Remaining amount 60 min later” value [5] of the same molecule?
**A.** Its value is 76.37%.

**Q.** And the “Stability compared with pimavanserin” value ([5]; dog liver microsomes in vitro)?
**A.** The value was “obviously superior stability to that of pimavanserin”.

**Q.** With `CC(C)COc1ccc(CNC(=O)N(Cc2ccc(F)cc2)C2CCN(C)CC2)cc1` [Pimavanserin, reference compound] as the molecule, how does the AUC(0-t) [3] read?
**A.** The AUC(0-t) was 4.29 ± 1.66 µM·h.

**Q.** And the Cmax [3]?
**A.** The Cmax was 536 ± 260 nM.

**Q.** And the MRT last [3]?
**A.** Its MRT last is 5.61 ± 0.34 h.

**Q.** And the Tmax [3]?
**A.** Its Tmax is 2.75 ± 1.26 h.

**Q.** And the half-life [3]?
**A.** The half-life was 2.38 ± 0.8 h.

**Q.** What about the “Remaining amount 60 min later” value [4] of the same molecule?
**A.** Its value is 77.44%.

**Q.** What about the “Remaining amount 60 min later” value [5] of the same molecule?
**A.** Its value is 29.72%.
